Experimental data published in patent publication US7192906B2, “Substituted pyrazole derivatives, production process thereof, and herbicide compositions containing the derivatives” (SDS Biotech K.K., priority 2001, dated 2007).

Experiments:
Assay type in all cases: in vivo
[1] = tested on: wheat (Triticum aestivum); test: Test Example 2 upland soil treatment, crop phytotoxicity; conditions: Table 5, upland soil treatment, index 0-5
How it was run: (§1)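 Pre-emergence soil treatment: seeds sown in upland soil in pots and covered with about 1 cm soil. Next day, a water-diluted wettable powder was sprayed evenly on the soil surface at 1 kg active ingredient per hectare. Weed control or crop injury was scored 0–5 (10% to ≥90% bands) 21 days later.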

soybean (Glycine max) [2] = test: as above; conditions: Table 5, upland soil treatment, index 0-5
How it was run: as §1

Rice (Oryza sativa) = test: Test Example 3 paddy field treatment, crop phytotoxicity; conditions: Table 6, paddy field treatment, transplanted rice, active ingredient 1 kg per hectare, 21st day after dropping, index 0-5
Description: (§2) A plastic pot of 130 cm^2 was filled with paddy soil, and soil puddling was carried out to adjust the submerged depth to 4 cm. Subsequently, seeds of Echinochloa crusgalli, Monochoria vaginalis, Ammannia multiflora and Scirpus juncoides were sowed, and rice (Oryza sative, variety: Koshihikari) of two-leaf period was transplanted by 2 rice plants of 1 stub per pot at a depth of 3 cm. On the 10th day after the transplantation, the wettable powder prepared in Formulation Example 1 was diluted with water such that the amount of the active ingredient became 1 kg per hectare, and then dropped to diffuse on the water surface. On the 21st day after the dropping, observation and evaluation were carried out according to the aforesaid criteria.
(§3) Herbicidal activity was evaluated based on the following criteria.
(§4) • 5: herbicidal effect of not less than 90%, or phytotoxicity of 90% or more • 4: herbicidal effect of not less than 70% and less than 90%, or phytotoxicity of 70% or more and less than 90% • 3: herbicidal effect of not less than 50% and less than 70%, or phytotoxicity of 50% or more and less than 70% • 2: herbicidal effect of not less than 30% and less than 50%, or phytotoxicity of 30% or more and less than 50% • 1: herbicidal effect of not less than 10% and less than 30%, or phytotoxicity of 10% or more and less than 30% • 0: herbicidal effect of not less than 0% and less than 10%, or phytotoxicity of 0% or more and less than 10%

Setaria viridis [3] = test: Test Example 2 upland soil treatment; conditions: Table 5, upland soil treatment, index 0-5
How it was run: as §1

Digitaria adscendens [4] = test: Test Example 2 upland soil treatment; conditions: Table 5, upland soil treatment, index 0-5
How it was run: as §1

Stellaria media [5] = test: Test Example 2 upland soil treatment; conditions: Table 5, upland soil treatment, index 0-5
How it was run: as §1

Chenopodium album [6] = test: Test Example 2 upland soil treatment; conditions: Table 5, upland soil treatment, index 0-5
How it was run: as §1

Ammannia multiflora = test: Test Example 3 paddy field treatment; conditions: Table 6, paddy field treatment, active ingredient 1 kg per hectare, 21st day after dropping, index 0-5
Description: as §2, §3, §4

Echinochloa crusgalli = test: Test Example 3 paddy field treatment; conditions: Table 6, paddy field treatment, active ingredient 1 kg per hectare, 21st day after dropping, index 0-5
Description: as §2, §3, §4

Monochoria vaginalis = test: Test Example 3 paddy field treatment; conditions: Table 6, paddy field treatment, active ingredient 1 kg per hectare, 21st day after dropping, index 0-5
Description: as §2, §3, §4

Scirpus juncoides = test: Test Example 3 paddy field treatment; conditions: Table 6, paddy field treatment, active ingredient 1 kg per hectare, 21st day after dropping, index 0-5
Description: as §2, §3, §4

[7] = tested on: wheat (Triticum aestivum); test: Test Example 1 upland field foliage treatment, crop phytotoxicity; conditions: Table 4, upland field foliage treatment, index 0-5
How it was run: (§5)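 Scored 0–5 (0: under 10%, 5: 90% or more effect or phytotoxicity) on day 21 after treatment; plants sown in upland soil received a leaf-surface spray 14 days post-sowing of diluted wettable powder delivering 1 kg active ingredient/ha.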

soybean (Glycine max) [8] = test: as above; conditions: Table 4, upland field foliage treatment, index 0-5
How it was run: as §5

Setaria viridis [9] = test: Test Example 1 upland field foliage treatment; conditions: Table 4, upland field foliage treatment, index 0-5
How it was run: as §5

Digitaria adscendens [10] = test: Test Example 1 upland field foliage treatment; conditions: Table 4, upland field foliage treatment, index 0-5
How it was run: as §5

Stellaria media [11] = test: Test Example 1 upland field foliage treatment; conditions: Table 4, upland field foliage treatment, index 0-5
How it was run: as §5

Chenopodium album [12] = test: Test Example 1 upland field foliage treatment; conditions: Table 4, upland field foliage treatment, index 0-5
How it was run: as §5

CNC(=O)C(Cn1cc(C)c(-c2cccc(F)c2F)n1)=NOC [Compound 55]
Herbicidal activity (phytotoxicity) TA: Wheat (Triticum aestivum) [1]: 0 (herbicidal effect of not less than 0% and less than 10%, or phytotoxicity of 0% or more and less than 10%)
Herbicidal activity (phytotoxicity) GM: Soybean (Glycine max) (soybean (Glycine max) [2]): 0 (herbicidal effect of not less than 0% and less than 10%, or phytotoxicity of 0% or more and less than 10%)
Herbicidal activity (phytotoxicity) OS (Rice (Oryza sativa)): 0 (herbicidal effect of not less than 0% and less than 10%, or phytotoxicity of 0% or more and less than 10%)
Herbicidal activity SV: Setaria viridis (Setaria viridis [3]): 5 (herbicidal effect of not less than 90%, or phytotoxicity of 90% or more)
Herbicidal activity DA: Digitaria adscendens (Digitaria adscendens [4]): 5 (herbicidal effect of not less than 90%, or phytotoxicity of 90% or more)
Herbicidal activity SM: Stellaria media (Stellaria media [5]): 5 (herbicidal effect of not less than 90%, or phytotoxicity of 90% or more)
Herbicidal activity CA: Chenopodium album (Chenopodium album [6]): 5 (herbicidal effect of not less than 90%, or phytotoxicity of 90% or more)
Herbicidal activity AM (Ammannia multiflora): 5 (herbicidal effect of not less than 90%, or phytotoxicity of 90% or more)
Herbicidal activity EC (Echinochloa crusgalli): 5 (herbicidal effect of not less than 90%, or phytotoxicity of 90% or more)
Herbicidal activity MV (Monochoria vaginalis): 5 (herbicidal effect of not less than 90%, or phytotoxicity of 90% or more)
Herbicidal activity SJ (Scirpus juncoides): 5 (herbicidal effect of not less than 90%, or phytotoxicity of 90% or more)

CNC(=O)C(Cn1cc(C)c(-c2cc(F)cc(C(F)(F)F)c2)n1)=NOC [Compound 88]
Herbicidal activity (phytotoxicity) TA: Wheat (Triticum aestivum) [1]: 0 (herbicidal effect of not less than 0% and less than 10%, or phytotoxicity of 0% or more and less than 10%)
Herbicidal activity (phytotoxicity) GM: Soybean (Glycine max) (soybean (Glycine max) [2]): 0 (herbicidal effect of not less than 0% and less than 10%, or phytotoxicity of 0% or more and less than 10%)
Herbicidal activity (phytotoxicity) TA: Wheat (Triticum aestivum) [7]: 0 (herbicidal effect of not less than 0% and less than 10%, or phytotoxicity of 0% or more and less than 10%)
Herbicidal activity (phytotoxicity) GM: Soybean (Glycine max) (soybean (Glycine max) [8]): 0 (herbicidal effect of not less than 0% and less than 10%, or phytotoxicity of 0% or more and less than 10%)
Herbicidal activity SV: Setaria viridis (Setaria viridis [9]): 4 (herbicidal effect of not less than 70% and less than 90%, or phytotoxicity of 70% or more and less than 90%)
Herbicidal activity DA: Digitaria adscendens (Digitaria adscendens [10]): 5 (herbicidal effect of not less than 90%, or phytotoxicity of 90% or more)
Herbicidal activity SM: Stellaria media (Stellaria media [11]): 5 (herbicidal effect of not less than 90%, or phytotoxicity of 90% or more)
Herbicidal activity CA: Chenopodium album (Chenopodium album [12]): 5 (herbicidal effect of not less than 90%, or phytotoxicity of 90% or more)
Herbicidal activity SV: Setaria viridis (Setaria viridis [3]): 4 (herbicidal effect of not less than 70% and less than 90%, or phytotoxicity of 70% or more and less than 90%)
Herbicidal activity DA: Digitaria adscendens (Digitaria adscendens [4]): 4 (herbicidal effect of not less than 70% and less than 90%, or phytotoxicity of 70% or more and less than 90%)
Herbicidal activity SM: Stellaria media (Stellaria media [5]): 5 (herbicidal effect of not less than 90%, or phytotoxicity of 90% or more)
Herbicidal activity CA: Chenopodium album (Chenopodium album [6]): 5 (herbicidal effect of not less than 90%, or phytotoxicity of 90% or more)

CCN(CC)C(=O)C(Cn1cc(C)c(-c2ccccc2)n1)=NOC [Compound 94]
Herbicidal activity (phytotoxicity) TA: Wheat (Triticum aestivum) [1]: 0 (herbicidal effect of not less than 0% and less than 10%, or phytotoxicity of 0% or more and less than 10%)
Herbicidal activity (phytotoxicity) GM: Soybean (Glycine max) (soybean (Glycine max) [2]): 0 (herbicidal effect of not less than 0% and less than 10%, or phytotoxicity of 0% or more and less than 10%)
Herbicidal activity (phytotoxicity) TA: Wheat (Triticum aestivum) [7]: 0 (herbicidal effect of not less than 0% and less than 10%, or phytotoxicity of 0% or more and less than 10%)
Herbicidal activity (phytotoxicity) GM: Soybean (Glycine max) (soybean (Glycine max) [8]): 0 (herbicidal effect of not less than 0% and less than 10%, or phytotoxicity of 0% or more and less than 10%)
Herbicidal activity SV: Setaria viridis (Setaria viridis [9]): 3 (herbicidal effect of not less than 50% and less than 70%, or phytotoxicity of 50% or more and less than 70%)
Herbicidal activity DA: Digitaria adscendens (Digitaria adscendens [10]): 3 (herbicidal effect of not less than 50% and less than 70%, or phytotoxicity of 50% or more and less than 70%)
Herbicidal activity SM: Stellaria media (Stellaria media [11]): 5 (herbicidal effect of not less than 90%, or phytotoxicity of 90% or more)
Herbicidal activity CA: Chenopodium album (Chenopodium album [12]): 5 (herbicidal effect of not less than 90%, or phytotoxicity of 90% or more)
Herbicidal activity SV: Setaria viridis (Setaria viridis [3]): 3 (herbicidal effect of not less than 50% and less than 70%, or phytotoxicity of 50% or more and less than 70%)
Herbicidal activity DA: Digitaria adscendens (Digitaria adscendens [4]): 3 (herbicidal effect of not less than 50% and less than 70%, or phytotoxicity of 50% or more and less than 70%)
Herbicidal activity SM: Stellaria media (Stellaria media [5]): 4 (herbicidal effect of not less than 70% and less than 90%, or phytotoxicity of 70% or more and less than 90%)
Herbicidal activity CA: Chenopodium album (Chenopodium album [6]): 5 (herbicidal effect of not less than 90%, or phytotoxicity of 90% or more)

CNC(=O)C(Cn1cc(C)c(-c2ccccc2)n1)=NOCc1ccccc1 [Compound 106]
Herbicidal activity (phytotoxicity) TA: Wheat (Triticum aestivum) [1]: 0 (herbicidal effect of not less than 0% and less than 10%, or phytotoxicity of 0% or more and less than 10%)
Herbicidal activity (phytotoxicity) GM: Soybean (Glycine max) (soybean (Glycine max) [2]): 0 (herbicidal effect of not less than 0% and less than 10%, or phytotoxicity of 0% or more and less than 10%)
Herbicidal activity (phytotoxicity) TA: Wheat (Triticum aestivum) [7]: 0 (herbicidal effect of not less than 0% and less than 10%, or phytotoxicity of 0% or more and less than 10%)
Herbicidal activity (phytotoxicity) GM: Soybean (Glycine max) (soybean (Glycine max) [8]): 0 (herbicidal effect of not less than 0% and less than 10%, or phytotoxicity of 0% or more and less than 10%)
Herbicidal activity SV: Setaria viridis (Setaria viridis [9]): 3 (herbicidal effect of not less than 50% and less than 70%, or phytotoxicity of 50% or more and less than 70%)
Herbicidal activity DA: Digitaria adscendens (Digitaria adscendens [10]): 3 (herbicidal effect of not less than 50% and less than 70%, or phytotoxicity of 50% or more and less than 70%)
Herbicidal activity SM: Stellaria media (Stellaria media [11]): 3 (herbicidal effect of not less than 50% and less than 70%, or phytotoxicity of 50% or more and less than 70%)
Herbicidal activity CA: Chenopodium album (Chenopodium album [12]): 3 (herbicidal effect of not less than 50% and less than 70%, or phytotoxicity of 50% or more and less than 70%)
Herbicidal activity SV: Setaria viridis (Setaria viridis [3]): 3 (herbicidal effect of not less than 50% and less than 70%, or phytotoxicity of 50% or more and less than 70%)
Herbicidal activity DA: Digitaria adscendens (Digitaria adscendens [4]): 4 (herbicidal effect of not less than 70% and less than 90%, or phytotoxicity of 70% or more and less than 90%)
Herbicidal activity SM: Stellaria media (Stellaria media [5]): 4 (herbicidal effect of not less than 70% and less than 90%, or phytotoxicity of 70% or more and less than 90%)
Herbicidal activity CA: Chenopodium album (Chenopodium album [6]): 4 (herbicidal effect of not less than 70% and less than 90%, or phytotoxicity of 70% or more and less than 90%)

CON=C(Cn1cc(C)c(-c2ccccc2)n1)C(=O)NN(C)C [Compound 124]
Herbicidal activity (phytotoxicity) TA: Wheat (Triticum aestivum) [1]: 0 (herbicidal effect of not less than 0% and less than 10%, or phytotoxicity of 0% or more and less than 10%)
Herbicidal activity (phytotoxicity) GM: Soybean (Glycine max) (soybean (Glycine max) [2]): 0 (herbicidal effect of not less than 0% and less than 10%, or phytotoxicity of 0% or more and less than 10%)
Herbicidal activity (phytotoxicity) TA: Wheat (Triticum aestivum) [7]: 0 (herbicidal effect of not less than 0% and less than 10%, or phytotoxicity of 0% or more and less than 10%)
Herbicidal activity (phytotoxicity) GM: Soybean (Glycine max) (soybean (Glycine max) [8]): 0 (herbicidal effect of not less than 0% and less than 10%, or phytotoxicity of 0% or more and less than 10%)
Herbicidal activity SV: Setaria viridis (Setaria viridis [9]): 3 (herbicidal effect of not less than 50% and less than 70%, or phytotoxicity of 50% or more and less than 70%)
Herbicidal activity DA: Digitaria adscendens (Digitaria adscendens [10]): 3 (herbicidal effect of not less than 50% and less than 70%, or phytotoxicity of 50% or more and less than 70%)
Herbicidal activity SM: Stellaria media (Stellaria media [11]): 4 (herbicidal effect of not less than 70% and less than 90%, or phytotoxicity of 70% or more and less than 90%)
Herbicidal activity CA: Chenopodium album (Chenopodium album [12]): 4 (herbicidal effect of not less than 70% and less than 90%, or phytotoxicity of 70% or more and less than 90%)
Herbicidal activity SV: Setaria viridis (Setaria viridis [3]): 3 (herbicidal effect of not less than 50% and less than 70%, or phytotoxicity of 50% or more and less than 70%)
Herbicidal activity DA: Digitaria adscendens (Digitaria adscendens [4]): 3 (herbicidal effect of not less than 50% and less than 70%, or phytotoxicity of 50% or more and less than 70%)
Herbicidal activity SM: Stellaria media (Stellaria media [5]): 4 (herbicidal effect of not less than 70% and less than 90%, or phytotoxicity of 70% or more and less than 90%)
Herbicidal activity CA: Chenopodium album (Chenopodium album [6]): 5 (herbicidal effect of not less than 90%, or phytotoxicity of 90% or more)
